# Key:
# [1] = system: Candida albicans ATCC 14053; assay: Antifungal susceptibility study (1), broth microdilution MIC; type: cell-based; conditions: lowest concentration preventing any visible growth, read at 48 hours, 35° C., RPMI 1640 pH 7.0
# Outline: (§1)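 Broth microdilution in test medium at pH 7.0 with two-fold compound dilutions (DMSO stocks diluted 50-fold into medium), inoculated with freshly grown yeast cultures. Plates were incubated without agitation at 35° C. for C. albicans or 25° C. for C. humicolus. MIC was taken as the concentration with no visible growth, read at 48 hours.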
# [2] = system: Cryptococcus humicolus ATCC 9949; assay: as above; type: cell-based; conditions: lowest concentration preventing any visible growth, read at 48 hours, 25° C., RPMI 1640 pH 7.0
# Outline: as §1
# [3] = system: Candida albicans ATCC 10231; assay: Antifungal susceptibility study (2), MIC50 by OD490 growth; type: cell-based; conditions: 50% growth inhibition from regression curve, M19 medium without NaCl, 30° C.
# Description: The anti-fungal activity of several of the nystatin derivatives was further investigated. […] The anti-fungal activity of a number of the nystatin derivatives was therefore determined in a method which is designed to be more sensitive.
# The test organism used for the further testing of polyene macrolide bioactivity was Candida albicans ATCC 10231, grown in 120 μl of standard M19 medium without NaCl (with an inoculum of 1000 cfu per well) and 30 μl of diluted polyene macrolide samples. The antibiotics were diluted in MeOH in series ensuring a spectrum of concentrations which yielded results ranging from complete growth inhibition to no inhibition of the test organism. The test organism cultures with antibiotic dilutions were incubated in 96-well microtiter plates at 30° C. without shaking, and growth was measured as OD490 after 12, 14 and 16 hours on a SpectraMax Plus microtiter plate reader. OD was plotted against antibiotic concentration, and MIC50 was estimated from the regression curve at 50% growth inhibition.
# [4] = system: mice (C57B1/6xDBA/2)F1 B6D2F1; conditions: single injection into tail vein, probit analysis
# Outline: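 Male B6D2F1 mice, 20-22 g, given one tail-vein injection of antibiotic suspended with sodium deoxycholate in phosphate buffer, within 1-1.5 h of preparation. Doses spanned 0% to 100% lethality with at least 3 intermediate doses, in randomized groups of 6 mice.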
# [5] = system: Candida albicans (strain 14053 ATCC); assay: Model of the candidiasis sepsis of mice, kidney burden; type: in vivo; conditions: for Candida albicans burden in kidneys (Mean): day 5, n=3 mice
# Description: In experiments used female mice of hybrids of first generation (C57B1/6xDBA/2)F1 (B6D2F1), weight 18-20 g., received from the Central farm “Kryukovo” of Russian Academies of Medical Science (RAMS). Animals were maintained in Institute' vivarium in plastic cages (with hardwood bedding in environmentally controlled room: 24±1° C., 12/12 hours light/dark cycle) on a standard diet of bricketed forages with an easy approach to drinking water (ad libitum). After 2-week quarantine healthy animals were used in experimental work.
# A preparation of comparison was amphotericin B (pure). Solutions of tested preparations prepared ex tempore by the technique specified by the customer.
# Animals were housed on 3 mice and infected intravenously with culture Candida albicans in a doze 1.0 million CFU/mouse in volume of 0.1 ml. It is necessary to note, that doze Candida albicans remained a constant in all experiments. In 30 minutes after infection to mice carried out the first intravenous introduction of tested preparations in corresponding dozes in volume of 0.2 ml (with a speed of 0.2 ml/30 second).
# Experiment has been planned in such a manner that in each experiment one doze (both for amphotericin B was used, and for tested preparations), each doze entered daily within four days, since day of infection (0, 1, 2 and 3 days). At each experiment there was a group untreated, infected with Candida albicans animals. Also there was a group “placebo”, intact (not infected) animals, which intravenously (in the same volume as medical preparations) injected 0.2 ml of solvent—phosphatic buffer +5% glucose (1:1).
# On the post challenge 5th day of experiment, mice were weighed and euthanized (killed) by a cervical dislocation. Then, in sterile conditions, Candida albicans burdens were determined by viable counting of homogenates from the kidneys. The kidneys, which were removed aseptically and weighed, pounded in porcelain mortars with sterile corundum, did dilutions of the received suspensions and sowed on Petri dishes with agar Saburo, incubated for 48 hours at temperature 35° C., then counted up developed colonies Candida albicans and recalculated their quantity on 1 g of kidney' tissue. The first dilution was 10^−1. Zero result at this cultivation accepted for 5 CFU/g.
# For the basic criterion of an assessment of the investigated preparations the maximal effect of the Amphotricin B was accepted (effective dose, ED).
# For significant accepted distinctions of average at P≦0.05 at comparison by Student t-criterion.
# [6] = dose 0.08 mg/kg/d i.v. for four days
# [7] = dose 0.31 mg/kg/d i.v. for four days
# [8] = dose 0.62 mg/kg/d i.v. for four days
# [9] = dose 1.25 mg/kg/d i.v. for four days
# [10] = dose 2.5 mg/kg/d i.v. for four days
# [11] = dose 0.16 mg/kg/d i.v. for four days
SMILES,MIC Candida albicans ATCC 14053 [1],MIC Cryptococcus humicolus ATCC 9949 [2],MIC50 [3],LD50 [4],MTD [4],"Candida albicans burden in kidneys (Mean) [5, 6]","Candida albicans burden in kidneys (Mean) [5, 7]","Candida albicans burden in kidneys (Mean) [5, 8]","Candida albicans burden in kidneys (Mean) [5, 9]","Candida albicans burden in kidneys (Mean) [5, 10]","Candida albicans burden in kidneys (Mean) [5, 11]","Candida albicans burden in kidneys (Mean) ([5]; dose 5 mg/kg/d i.v. for four days, zero result accepted for 5 CFU/g)",dose of maximal activity as % from MTD ([5]; 1.25 mg/kg/d),"dose of maximal activity (effective dose, ED) ([5]; highest studied dose, criterion of activity)"
CC1C=CC=CC=CC=CC=CC=CC=CC(OC2OC(C)C(O)C(N)C2O)CC2OC(O)(CC(O)C(O)CCC(O)CC(O)CC(O)CC(=O)OC(C)C(C)C1O)CC(O)C2C (stereo not shown) [Compound 1],1 µg/mL,1 µg/mL,0.07 µg/mL,15.4 mg/kg,7.8 mg/kg,–,–,–,–,–,–,–,–,–
"CC1O[C@@H](O[C@H]2/C=C/C=C/C=C/C=C/C=C/C=C/C=C/[C@H](C)[C@@H](O)[C@@H](C)[C@H](C)OC(=O)C[C@H](O)C[C@H](O)C[C@H](O)CC[C@@H](O)[C@H](O)C[C@]3(O)C[C@H](O)[C@@H](C)[C@H](C2)O3)[C@H](O)C(NC(=O)[C@@H](N)CCCCN)[C@@H]1O (stereo partly drawn) [Compound 51, N-L-Lysyl-Compound 1]",1 µg/mL,1 µg/mL,–,5.3 mg/kg,4.48 mg/kg,56667 CFU/g,22667 CFU/g,17833 CFU/g,9400 CFU/g,5 CFU/g,–,–,–,–
"CC1C=CC=CC=CC=CC=CC=CC=CC(OC2OC(C)C(O)C(N)C2O)CC2OC(O)(CC(O)C(O)CCC(O)CC(O)CC(O)CC(=O)OC(C)C(C)C1O)CC(O)C2C(=O)NCCCN(C)C (stereo not shown) [Compound 11, S44HP DMAP Amide]",1 µg/mL,1 µg/mL,0.12 µg/mL,16.4 mg/kg,11.9 mg/kg,–,–,–,–,–,–,–,–,–
"CC1C=CC=CC=CC=CC=CC=CC=CC(OC2OC(C)C(O)C(N)C2O)CC2OC(O)(CC(O)C(O)CCC(O)CC(O)CC(O)CC(=O)OC(C)C(C)C1O)CC(O)C2C.NC(CCC(=O)O)C(=O)O [Compound 29, Compound 1 L-glutamate]",1 µg/mL,1 µg/mL,–,17.8 mg/kg,11.0 mg/kg,–,–,12500 CFU/g,2557 CFU/g,133 CFU/g,102667 CFU/g,5 CFU/g,–,–
"C[C@@H]1[C@H](O)[C@@H](C)/C=C/C=C/C=C/C=C/C=C/C=C/C=C/[C@H](O[C@@H]2O[C@H](C)[C@@H](O)[C@H](N)[C@@H]2O)C[C@@H]2O[C@](O)(C[C@@H](O)C[C@@H](O)[C@H](O)CC[C@@H](O)C[C@@H](O)CC(=O)O[C@H]1C)C[C@H](O)[C@H]2C(=O)O [Amphotericin B, reference compound]",1 µg/mL,1 µg/mL,0.12 µg/mL,2.8 mg/kg,2.01 mg/kg,105000 CFU/g,34667 CFU/g,10667 CFU/g,1667 CFU/g,–,85667 CFU/g,–,≈ 62%,1.25 mg/kg/day

# From US8415312B2, “Compound which is a nystatin derivative” (Biosergen AS, priority 2007, dated 2013)
